Experimental data published in patent US9289503B2, “Fatty acid fumarate derivatives and their uses” (Catabasis Pharmaceuticals, Inc., priority 2010, dated 2016).

Tests used:
Type in all cases: cell-based
[1] = test system: TNF-α; experiment: TNF-α gene expression in LPS-stimulated RAW264.7 macrophages; conditions: 10 μM; 2 hours pre-incubation, 100 ng/ml LPS 3 hours; compared with 10 μM each DHA and MMF; FIG. 1
Experimental: (§1) RAW264.7 macrophages were seeded at a density of 100,000 cells/well in a 96-well plate in DMEM supplemented with 10% FBS and Penn/strep. 16 hours later, medium was aspirated and replaced with 90 μl/well of serum-free DMEM. A fatty acid fumarate conjugate, DHA and monomethyl-fumarate (MMF) were brought up in 100% EtOH to a concentration of 100 mM and then diluted 1:100 in 100% FBS for a stock solution consisting of 1 mM compound and 1% EtOH. these stock solutions were then diluted 1:10 in FBS supplemented with 1% EtOH to generate a 100 μM of a fatty acid fumarate conjugate and 100 μM each of DHA and MMF. 10 μl was then added to the RAW246.7 cells to generate final concentrations 10 μM of the fatty acid fumarate conjugate or 10 μM each DHA and MMF, along with vehicle only control. The compounds were allowed to pre-incubate for 2 hours before stimulation of 100 ng/ml LPS (10 μl of 1 μg/ml LPS was added to each well). Following 3 hours of LPS stimulation, cells were washed once in 1× PBS, aspirated dry, and flash frozen in liquid nitrogen. RNA was then isolated and converted to cDNA using the Cells to cDNA kit (Ambion) according to the manufacturer's protocol. IL-1β and TNF-α transcript levels were then measured using Taqman primer/probe assay sets (Applied Biosystems), normalized to GAPDH using the deltaCt method, and the data expressed relative to vehicle only control. […]

[2] = test system: Hmox1; experiment: Hmox1 target gene expression in RAW264.7 macrophages; conditions: RAW264.7, 2 hours pre-incubation, 100 ng/ml LPS 3 hours; FIG. 3
Experimental: RAW264.7 macrophages are seeded at a density of 100,000 cells/well in a 96-well plate in DMEM supplemented with 10% FBS and Penn/strep. 16 hours later, medium is aspirated and replaced with 90 μl/well of serum-free DMEM. A fatty acid fumarate conjugate, DHA and EPA are brought up in 100% EtOH to a concentration of 100 mM and then diluted 1:100 In 100% FBS for a 20× stock solution consisting of 1 mM compound and 1% EtOH. The fatty acid fumarate conjugate 20× stock solutions are diluted 1:2 in FBS supplemented with 1% EtOH for a 500 uM 10× stock solution, whereas equal volumes of the DHA and EPA 20× stock solutions are mixed to create a 10× stock solution containing 500 μm each of DHA and EPA. […] The compounds are allowed to pre-incubate for 2 hours before stimulation of 100 ng/ml LPS (10 μl of 1 μg/ml LPS is added to each well). Following 3 hours of LPS stimulation, cells are washed once in 1× PBS, aspirated dry, and flash frozen in liquid nitrogen. RNA is then isolated and converted to cDNA using the Cells to cDNA kit (Ambion) according to the manufacturer's protocol. Transcript levels are then measured using ABI Taqman primer/probe assay kits, normalized to GAPDH using the deltaCt method, and the data expressed relative to vehicle only control.

[3] = test system: IL-1β; experiment: IL-1β gene expression in LPS-stimulated RAW264.7 macrophages; conditions: 10 μM; 2 hours pre-incubation, 100 ng/ml LPS 3 hours; compared with 10 μM each DHA and MMF; FIG. 1
Experimental: as §1, with “The compounds were allowed to pre-incubate for 2 hours before stimulation of 100 ng/ml LPS (10 μl of 1 μg/ml LPS was added to each well). Following 3 hours of LPS stimulation, cells were washed once in 1× PBS, aspirated dry, and flash frozen in liquid nitrogen. RNA was then isolated and converted to cDNA using the Cells to cDNA kit (Ambion) according to the manufacturer's protocol.” left out
RAW264.7 macrophages are seeded at a density of 100,000 cells/well in a 96-well plate in DMEM supplemented with 10% FBS and Penn/strep. […] Transcript levels are then measured using ABI Taqman primer/probe assay kits, normalized to GAPDH using the deltaCt method, and the data expressed relative to vehicle only control.

Which results are given for CC/C=C\C/C=C\C/C=C\C/C=C\C/C=C\C/C=C\CCC(=O)NCCNC(=O)/C=C/C(=O)OC [Compound I-1, (E)-methyl 4-(2-(4Z,7Z,10Z,13Z,16Z,19Z)-docosa-4,7,10,13,16,19-hexaenamidoethylamino)-4-oxobut-2-enoate]?
TNF-α gene expression [1]: greater reduction; effect on the target gene Hmox1 [2]: positive effect; IL-1β gene expression [3]: greater reduction
